Measured values: DBAASP
In brackets after ≈: the same amount, converted by molar mass.

Columns and labels:
Test in all cases: ≥ marks a high value that may be exact or a test limit, other limits are often not marked, values filed in µg/mL are converted to µM
[1] = test system: Staphylococcus aureus ATCC 25923
[2] = test system: Staphylococcus aureus ATCC 43300
Bacillus subtilis = test system: Bacillus subtilis
Escherichia coli ML-35p = test system: Escherichia coli ML-35p
[3] = test system: Pseudomonas aeruginosa ATCC 27853
[4] = test system: Pseudomonas aeruginosa PAO1
[5] = test system: Candida albicans ATCC 2002
Bacillus cereus = test system: Bacillus cereus
Streptococcus uberis = test system: Streptococcus uberis
Leuconostoc lactis = test system: Leuconostoc lactis
Escherichia coli = test system: Escherichia coli
Pasteurella multocida = test system: Pasteurella multocida
[6] = test system: Staphylococcus epidermidis
Listeria innocua = test system: Listeria innocua
Staphylococcus aureus = test system: Staphylococcus aureus
Micrococcus luteus = test system: Micrococcus luteus
[7] = test system: Escherichia coli ATCC 25922
[8] = test system: Acinetobacter baumannii ATCC 19606
[9] = test system: Cryptococcus neoformans ATCC 208821
[10] = test system: Candida albicans ATCC 90028
[11] = test system: Klebsiella pneumoniae ATCC 700603
[12] = test system: Bacillus subtilis ATCC 6633
[13] = test system: Salmonella enterica subsp. enterica serovar Typhimurium ATCC 14028
[14] = test system: Staphylococcus epidermidis ATCC 12228
[15] = test system: Klebsiella pneumoniae ATCC 10031
[16] = test system: Shigella dysenteriae ATCC 9752
[17] = test system: Staphylococcus aureus ATCC 6538P
[18] = test system: Micrococcus luteus ATCC 10240
[19] = test system: Cryptococcus neoformans ATCC 32045
[20] = test system: Staphylococcus aureus ATCC 33591
[21] = test system: Pseudomonas aeruginosa ATCC 10145
[22] = test system: Escherichia coli ATCC 2592
[23] = test system: Candida albicans ATCC 10231

MIC [1]	MIC [2]	MIC (Bacillus subtilis)	MIC (Escherichia coli ML-35p)	MIC [3]	MIC [5]	MIC [7]	MIC [8]	MIC [9]	MIC [10]	MIC [11]	SMILES	other results
–	18.9 µM (≈ 32 µg/mL)	–	–	> 18.9 µM	–	> 18.9 µM	> 18.9 µM	4.72 µM (≈ 8 µg/mL)	18.9 µM (≈ 32 µg/mL)	> 18.9 µM	NC(N)=NCCC[C@H](NC(=O)[C@H](CCCN=C(N)N)NC(=O)[C@H](CS)NC(=O)[C@H](CCCN=C(N)N)NC(=O)[C@H](Cc1cnc[nH]1)NC(=O)[C@H](CO)NC(=O)[C@H](CCCN=C(N)N)NC(=O)[C@H](CS)NC(=O)[C@H](CS)NC(=O)[C@H](CCCN=C(N)N)NC(=O)[C@H](Cc1cnc[nH]1)NC(=O)[C@H](Cc1cnc[nH]1)NC(=O)[C@@H](N)CO)C(=O)O [SHHRCCRSHRCRR]	–
–	–	–	–	8.6 µM (≈ 12.5 µg/mL)	–	8.6 µM (≈ 12.5 µg/mL)	–	–	–	–	CC(C)C[C@H](NC(=O)[C@H](Cc1c[nH]c2ccccc12)NC(=O)[C@H](CCCCN)NC(=O)[C@H](Cc1ccccc1)NC(=O)[C@H](C)NC(=O)[C@H](Cc1c[nH]c2ccccc12)NC(=O)[C@H](CCCCN)NC(=O)[C@H](C)NC(=O)[C@@H](N)Cc1ccccc1)C(=O)N[C@@H](CCCCN)C(=O)N[C@@H](CCCCN)C(N)=O [FAKWAFKWLKK]	MIC [12]: 4.34 µM (≈ 6.3 µg/mL); MIC [13]: 17.2 µM (≈ 25 µg/mL); MIC [14]: 4.34 µM (≈ 6.3 µg/mL); MIC [15]: 4.34 µM (≈ 6.3 µg/mL); MIC [16]: 8.6 µM (≈ 12.5 µg/mL); MIC [17]: 4.34 µM (≈ 6.3 µg/mL); MIC [18]: 4.34 µM (≈ 6.3 µg/mL)

The next lines start with the compound.

SMILES	MIC [1]	MIC [2]	MIC (Bacillus subtilis)	MIC (Escherichia coli ML-35p)	MIC [3]	MIC [5]	MIC [7]	MIC [8]	MIC [9]	MIC [10]	MIC [11]	other results
CC(C)C[C@H](NC(=O)[C@H](C)NC(=O)CNC(=O)[C@H](Cc1ccccc1)NC(=O)[C@H](CC(C)C)NC(=O)[C@H](CC(C)C)NC(=O)[C@@H]1CCCN1C(=O)[C@H](Cc1ccccc1)NC(=O)[C@@H](N)Cc1ccccc1)C(=O)N[C@@H](CO)C(=O)N[C@@H](CO)C(=O)N[C@@H](Cc1cnc[nH]1)C(=O)N[C@@H](CC(C)C)C(=O)N1CCC[C@H]1C(=O)N[C@@H](CCCCN)C(=O)N[C@@H](CC(C)C)C(=O)N[C@@H](Cc1ccccc1)C(N)=O [FFPLLFGALSSHLPKLF]	1.94 µM (≈ 3.75 µg/mL)	3.88 µM (≈ 7.5 µg/mL)	3.88 µM (≈ 7.5 µg/mL)	7.75 µM (≈ 15 µg/mL)	1.94 µM (≈ 3.75 µg/mL)	1.94 µM (≈ 3.75 µg/mL)	–	–	–	–	–	MIC [4]: 1.94 µM (≈ 3.75 µg/mL)
CC[C@H](C)[C@H](NC(=O)CNC(=O)[C@H](Cc1c[nH]c2ccccc12)NC(=O)[C@H](CS)NC(=O)[C@H](CO)NC(=O)[C@@H](NC(=O)[C@H](CCC(N)=O)NC(=O)[C@H](Cc1ccccc1)NC(=O)[C@@H]1CCCN1C(=O)[C@@H]1CCCN1C(=O)[C@H](CCCN=C(N)N)NC(=O)[C@H](CCCCN)NC(=O)[C@H](Cc1c[nH]c2ccccc12)NC(=O)[C@@H](NC(=O)[C@H](CCCCN)NC(=O)[C@@H](N)Cc1ccccc1)[C@@H](C)O)[C@@H](C)O)C(=O)N[C@H](C(=O)N[C@@H](CCCCN)C(=O)N[C@@H](CCC(=O)O)C(=O)O)[C@@H](C)CC [FKTWKRPPFQTSCWGIIKE]	11.7 µM (≈ 27.5 µg/mL)	23.4 µM (≈ 55 µg/mL)	≥ 46.8 µM	≥ 46.8 µM	23.4 µM (≈ 55 µg/mL)	5.84 µM (≈ 13.8 µg/mL)	–	–	–	–	–	MIC [4]: 23.4 µM (≈ 55 µg/mL)
CC[C@H](C)[C@H](NC(=O)[C@@H](NC(=O)[C@H](C)NC(=O)[C@H](Cc1ccccc1)NC(=O)[C@H](CC(C)C)NC(=O)CN)C(C)C)C(=O)N[C@@H](CCCCN)C(=O)N[C@@H](CCCCN)C(=O)N[C@H](C(=O)N[C@@H](C)C(=O)N[C@@H](CO)C(=O)N[C@H](C(=O)N[C@H](C(=O)N[C@@H](CCCCN)C(=O)N[C@@H](CCCCN)C(=O)N[C@@H](CC(C)C)C(N)=O)[C@@H](C)CC)C(C)C)C(C)C [GLFAVIKKVASVIKKL]	–	–	–	–	–	–	–	–	–	–	–	MIC (Bacillus cereus): 14.6 µM (≈ 25 µg/mL); MIC (Streptococcus uberis): 14.6 µM (≈ 25 µg/mL); MIC (Leuconostoc lactis): 1.75 µM (≈ 3 µg/mL); MIC (Escherichia coli): 58.3 µM (≈ 99.9 µg/mL); MIC (Pasteurella multocida): ≥ 58.3 µM; MIC [6]: 7 µM (≈ 12 µg/mL); MIC (Listeria innocua): 3.5 µM (≈ 6 µg/mL); MIC (Staphylococcus aureus): 14.6 µM (≈ 25 µg/mL); MIC (Micrococcus luteus): 14.6 µM (≈ 25 µg/mL)
CC[C@H](C)[C@H](NC(=O)[C@H](C)NC(=O)[C@@H](NC(=O)[C@@H](NC(=O)[C@H](CCCCN)NC(=O)[C@@H](NC(=O)[C@H](CCCCN)NC(=O)[C@H](CC(=O)O)NC(=O)[C@H](CCCN=C(N)N)NC(=O)[C@@H](NC(=O)[C@@H](N)CO)[C@@H](C)CC)[C@@H](C)CC)[C@@H](C)O)[C@@H](C)CC)C(=O)N[C@@H](CC(=O)O)C(=O)N[C@@H](CC(C)C)C(=O)N[C@@H](C)C(=O)N[C@@H](CCCCN)C(=O)N[C@@H](CO)C(=O)N[C@@H](C)C(=O)NCC(=O)N[C@H](C(=O)NCC(=O)N[C@H](C(=O)N[C@@H](CC(C)C)C(=O)N[C@@H](CCCCN)C(=O)N[C@H](C(=O)N[C@@H](CC(C)C)C(=O)N[C@H](C(=O)N[C@H]1CSSC[C@@H](C(=O)O)NC(=O)[C@H](CO)NC(=O)[C@H](CCCCN)NC(=O)[C@H](CC(N)=O)NC(=O)[C@H](CC(C)C)NC(=O)[C@H](CCCCN)NC1=O)[C@@H](C)CC)[C@@H](C)O)C(C)C)[C@@H](C)O [SIRDKIKTIAIDLAKSAGTGVLKTLICKLNKSC]	4.28 µM (≈ 15 µg/mL)	3.57 µM (≈ 12.5 µg/mL)	5.35 µM (≈ 18.7 µg/mL)	7.14 µM (≈ 25 µg/mL)	–	5.35 µM (≈ 18.7 µg/mL)	–	–	–	–	–	–
CC(C)C[C@H](NC(=O)[C@H](CCCN=C(N)N)NC(=O)[C@@H]1CCCN1C(=O)[C@H](CCCN=C(N)N)NC(=O)[C@H](Cc1cnc[nH]1)NC(=O)[C@H](Cc1cnc[nH]1)NC(=O)[C@@H](N)CO)C(=O)N[C@@H](Cc1ccccc1)C(=O)N[C@@H](Cc1cnc[nH]1)C(=O)N[C@@H](CCCN=C(N)N)C(=O)N[C@@H](Cc1cnc[nH]1)C(=O)N[C@@H](CCCN=C(N)N)C(=O)N[C@@H](Cc1cnc[nH]1)C(=O)O [SHHRPRLFHRHRH]	–	> 18 µM	–	–	> 18 µM	–	> 18 µM	> 18 µM	18 µM (≈ 32 µg/mL)	18 µM (≈ 32 µg/mL)	> 18 µM	–
CC(C)C[C@H](NC(=O)[C@H](CCCN=C(N)N)NC(=O)[C@@H]1CCCN1C(=O)[C@H](CCCN=C(N)N)NC(=O)[C@H](Cc1cnc[nH]1)NC(=O)[C@H](Cc1cnc[nH]1)NC(=O)[C@@H](N)CO)C(=O)N[C@@H](Cc1ccccc1)C(=O)N[C@@H](Cc1cnc[nH]1)C(=O)N[C@@H](CCCN=C(N)N)C(=O)N[C@@H](CCCN=C(N)N)C(=O)N[C@@H](CCCN=C(N)N)C(=O)N[C@@H](Cc1cnc[nH]1)C(=O)O [SHHRPRLFHRRRH]	–	> 17.9 µM	–	–	> 17.9 µM	–	> 17.9 µM	> 17.9 µM	17.9 µM (≈ 32 µg/mL)	17.9 µM (≈ 32 µg/mL)	> 17.9 µM	–
C[C@H](NC(=O)[C@H](Cc1ccccc1)NC(=O)[C@H](CCCCN)NC(=O)[C@H](CCCCN)NC(=O)[C@H](C)NC(=O)[C@H](Cc1ccccc1)NC(=O)[C@@H](N)CCCCN)C(=O)N[C@@H](CCCCN)C(=O)O [KFAKKFAK]	–	–	–	–	–	–	–	–	–	–	–	MIC [19]: ≥ 258 µM; MIC [20]: ≥ 258 µM; MIC [21]: ≥ 258 µM; MIC [22]: ≥ 258 µM; MIC [23]: > 258 µM
